# Measured values published in patent US20070071794A1, “DRUGS FOR TREATING DIABETES” (priority 2004, published 2007).
# Tested on: INS-1 cells derived from pancreatic β cells of rats
# Assay: Insulin secretion of INS-1 cells with aspartic acid combined with an insulin secretagogue
# Type: cell-based
# Conditions: Condition 2: KRBH buffer, 5 mM glucose, 0.3 μM nateglinide, 2 hours, n=3; Cond. 1 (no drug) 2.85±0.49
# Procedure: INS-1 cells derived from pancreatic β cells of rats were dispersed in each amount of 2×10^5 cells on a 24-well culture plate, and cultured on RPMI medium for 48 hours. […] Condition 1: KRBH buffer, 5 mM glucose Condition 2: KRBH buffer, 5 mM glucose, 0.3 μM nateglinide Condition 3: […] Condition 4: […]
row,Structure (SMILES),insulin secretion rate [ng/mL]
1,"CC(C)[C@H]1CC[C@H](C(=O)N[C@H](Cc2ccccc2)C(=O)O)CC1 [nateglinide, reference compound]",4.34 ± 1.19

# Same assay, conditions: Condition 3: KRBH buffer, 5 mM glucose, 10 mM aspartic acid, 2 hours, n=3; Cond. 1 (no drug) 2.85±0.49
row,Structure (SMILES),insulin secretion rate [ng/mL]
1,"N[C@@H](CC(=O)O)C(=O)O [Asp, L-aspartic acid]",3.69 ± 0.87

# Same assay, conditions: KRBH buffer, 5 mM glucose, 2 hours; 0.3 μM nateglinide and/or 10 mM aspartic acid; compared to Condition 1 (combination also to Conditions 2, 3)
row,Structure (SMILES),"insulin secretion increase (significance, in words)"
1,"N[C@@H](CC(=O)O)C(=O)O [Asp, L-aspartic acid]",significant insulin secretion increase was not seen
2,"CC(C)[C@H]1CC[C@H](C(=O)N[C@H](Cc2ccccc2)C(=O)O)CC1 [nateglinide, reference compound]",significant insulin secretion increase was not seen

# Tested on: GK rats
# Assay: Glucose tolerance test in GK rats fed aspartic acid (blood glucose ΔAUC, insulinogenic index)
# Type: in vivo
# Conditions: 3AS group: food with 3% aspartic acid, eighth week; oral 1 g/kg glucose after 5 hour fasting; CON group 230
# Procedure: Male GK rats (7 weeks old) were fed in the following groups.
# CON Group: 5 GK rats Controlled food was administered.
# 3AS Group: 5 GK rats Food with 3% aspartic acid was administered.
# 6AS Group: 5 GK rats Food with 6% aspartic acid was administered.
# In the eighth week of administration, the glucose tolerance test (oral administration of 1 g/kg of glucose) was conducted to the rats after 5 hour fasting, and their blood glucose and insulin levels were determined over time.
# Insulinogenic index was determined from the results of the glucose tolerance test after eight week administration in Example 2. Insulinogenic index is the value wherein the insulin rate secreted in 15 minutes after adding glucose was divided by the glucose level that increased in 15 minutes after adding glucose.
row,Structure (SMILES),"ΔAUC (blood glucose, glucose tolerance test) [mg·h/dL]"
1,"N[C@@H](CC(=O)O)C(=O)O [Asp, L-aspartic acid]",190

# Same assay, conditions: 6AS group: food with 6% aspartic acid, eighth week; oral 1 g/kg glucose after 5 hour fasting; CON group 230
row,Structure (SMILES),"ΔAUC (blood glucose, glucose tolerance test) [mg·h/dL]"
1,"N[C@@H](CC(=O)O)C(=O)O [Asp, L-aspartic acid]",140

# Same assay, conditions: food with 3% or 6% aspartic acid, eight weeks; insulin secreted / glucose increase in 15 minutes after glucose
row,Structure (SMILES),Insulinogenic index (result in words)
1,"N[C@@H](CC(=O)O)C(=O)O [Asp, L-aspartic acid]",improved corresponding to the administered dose

# Same assay, conditions: food with 6% aspartic acid, after eight week administration
row,Structure (SMILES),glucose tolerance (result in words)
1,"N[C@@H](CC(=O)O)C(=O)O [Asp, L-aspartic acid]",improvement in the glucose tolerance was seen

# Tested on: INS-1 cells derived from pancreatic β cells of rats
# Assay: Effect of improving insulin secretion defects in INS-1 cells cultured under high glucose
# Type: cell-based
# Conditions: 25 mM glucose 28 h, then 11.1 mM glucose + amino acid at 10 times RPMI concentration 19 h; secretion in 16.7 mM glucose 2 h; 0 = defective cond., 1 = ordinary cond.
# Description: INS-1 cells derived from pancreatic β cells of rats were dispersed in each amount of 2×10^5 cells on a 24-well culture plate, then divided into three groups and cultured under the following conditions. That is:
# First Group: Culture on RPMI medium (Non-patent Literature 4) under the ordinary condition.
# Second Group: Culture under the secretion defective condition by culture under the high glucose concentration. That is, the glucose concentration was increased under the culture conditions of the first group.
# Third Group: Under the culture condition of the second group, culture was conducted so that the end concentration of aspartic acid, cystine, serine, asparagine, isoleucine, histidine, hydroxyproline, glutamic acid or valine in the medium became 10 times as high as the concentration thereof in the RPMI medium.
# First Group: ordinary condition
# • cultured in 11.1 mM glucose for 28 hours, • cultured in 11.1 mM glucose for 19 hours Second Group: secretion defective condition • cultured in 25 mM glucose for 28 hours, • cultured in 11.1 mM glucose for 19 hours Third Group: secretion defective+amino acid condition • cultured in 25 mM glucose for 28 hours,
# cultured in 11.1 mM glucose+amino acids for 19 hours
# Those cultured cells were further cultured for 1 hour in KRBH buffer (Non-patent Literature 5), and cultured for 2 hours in KRBH buffer containing 16.7 mM glucose. Then, insulin secretion rate was determined. Under the secretion defective condition of the second group, the insulin secretion rate of […] lowered to about 60% of that under the ordinary condition. The effect of improving insulin secretion defects of amino acids was calculated by the following index. Index of insulin secretion improvement=((insulin secretion of the third group)−(insulin secretion of the second group))/((insulin secretion of the first group)−(insulin secretion of the second group))
# (Reference: The index of insulin secretion improvement becomes 0 when the insulin secretion in administration of amino acids is same as that in the secretion defective condition, and it becomes 1 when the insulin secretion in administration of amino acids is same as that in the ordinary condition.)
row,Structure (SMILES),Index of insulin secretion improvement
1,"NC(=O)C[C@H](N)C(=O)O [Asn, asparagine]",0.87
2,"N[C@@H](CC(=O)O)C(=O)O [Asp, L-aspartic acid]",1.75
3,"N[C@@H](CSSC[C@H](N)C(=O)O)C(=O)O [Cystine, cystine]",1.08
4,"N[C@@H](CCC(=O)O)C(=O)O [Glu, glutamic acid]",0.57
5,"N[C@@H](Cc1c[nH]cn1)C(=O)O [His, histidine]",0.67
6,"O=C(O)[C@@H]1C[C@@H](O)CN1 [Hydroxyproline, hydroxyproline]",0.64
7,"CC[C@H](C)[C@H](N)C(=O)O [Ile, isoleucine]",0.84
8,"N[C@@H](CO)C(=O)O [Ser, serine]",0.97
9,"CC(C)[C@H](N)C(=O)O [Val, valine]",0.35

# Same assay, conditions: secretion defective + amino acid condition; p<0.05
row,Structure (SMILES),improvement in insulin secretion defects (significance)
1,"NC(=O)C[C@H](N)C(=O)O [Asn, asparagine]",significantly improved
2,"N[C@@H](CC(=O)O)C(=O)O [Asp, L-aspartic acid]",significantly improved
3,"N[C@@H](CSSC[C@H](N)C(=O)O)C(=O)O [Cystine, cystine]",significantly improved
4,"N[C@@H](CCC(=O)O)C(=O)O [Glu, glutamic acid]",significantly improved
5,"N[C@@H](Cc1c[nH]cn1)C(=O)O [His, histidine]",significantly improved
6,"O=C(O)[C@@H]1C[C@@H](O)CN1 [Hydroxyproline, hydroxyproline]",significantly improved
7,"CC[C@H](C)[C@H](N)C(=O)O [Ile, isoleucine]",significantly improved
8,"N[C@@H](CO)C(=O)O [Ser, serine]",significantly improved
9,"CC(C)[C@H](N)C(=O)O [Val, valine]",significantly improved
10,"N=C(N)NCCC[C@H](N)C(=O)O [arginine, reference compound]",significant improvement in insulin secretion defects was not confirmed
11,"CC(C)C[C@H](N)C(=O)O [leucine, reference compound]",significant improvement in insulin secretion defects was not confirmed
12,"NCCCC[C@H](N)C(=O)O [lysine, reference compound]",significant improvement in insulin secretion defects was not confirmed
